Laboratory results taken from US11219221B2 (FarmHannong Co., Ltd., priority 2017, dated 2022).

Assays:
Type in all cases: cell-based
Conditions in all cases: LB agar, 37° C., light, 16 to 20 hours
[1] = system: CyPPO16 wild type (SEQ ID NO: 1) in PPO-deficient E. coli BT3(ΔPPO)
Procedure: (§1) The mutated CyPPO gene obtained from the Example 2 was transformed to BT3 (ΔPPO) strain which is deficient of PPO activity and cultured in LB media with PPO-inhibiting herbicide, thereby examining whether growth of transformed BT3 was not inhibited.
(§2) BT3 competent cells were transformed with the pET303-CyPPO16 and pET303-CyPPO17 plasmids and those with a mutation(s) constructed in Example 2 respectively, and were cultured in LB agar media containing carbenicillin (Gold Biotechnology, Co., Ltd.).
(§3) Single colony of E. coli transformed with each CyPPO gene was cultured in 3 ml of LB broth containing carbenicillin overnight, and then was subcultured until absorbance (0D600) reached 0.5 to 1. Then, it was diluted with LB broth to OD600=0.5. Again, the diluted solution was serially diluted 4 times by a factor of one tenth.
(§4) The LB agar media (LB 25 g/l, Bacto agar 15 g/l) containing carbenicillin (100 μg/ml) and 0 to 4,000 μM of various herbicides dissolved in DMSO was prepared. Next, 10 μl of each diluted solution was dropped on the plate and cultured at 37° C. under light (Tables 7 and 9, FIGS. 2 to 6, and 18 to 22) or dark (Tables 8 and 10, FIGS. 7 to 17, and 23 to 33) for 16 to 20 hours. Then, extent of tolerance was evaluated.
(§5) The extent of herbicide tolerance of the mutated genes was evaluated by comparing that of mutated genes with that of wild type. The relative tolerance was represented with “+” as a factor of 10 times. Evaluation result was listed in Tables 7 to10 and FIGS. 2 to 33:
(§6) In Tables 7 to 10, tolerance level was presented as of tolerance of wild type and of variants equivalent to that of wild type, and was done as ‘+’ per each 10 fold resistance until ‘+++++’ as maximal resistance. (Tolerance level was evaluated by relative growth level of variants to that of wild type in the media containing highest concentration of herbicide; ‘+’=1-9 fold higher tolerance, ‘++’=10-99 fold higher tolerance, ‘+++’=100-999 fold higher tolerance, ‘++++’=1,000-9,999 fold higher tolerance, ‘+++++’=more than 10,000 fold higher tolerance)

[2] = system: CyPPO17 wild type (SEQ ID NO: 3) in PPO-deficient E. coli BT3(ΔPPO)
Procedure: as §1, §2, §3, §4, §5, §6

[3] = system: CyPPO17 (SEQ ID NO: 3) variant F359L in PPO-deficient E. coli BT3(ΔPPO)
Procedure: as §1, §2, §3, §4
(§7) The extent of herbicide tolerance of the mutated genes was evaluated by comparing that of mutated genes with that of wild type. The relative tolerance was represented with “+” as a factor of 10 times.
(§8) In Tables 7 to 10, tolerance level was presented as of tolerance of wild type and of variants equivalent to that of wild type, and was done as ‘+’ per each 10 fold resistance until ‘+++++’ as maximal resistance.

[4] = system: CyPPO17 (SEQ ID NO: 3) variant F359I in PPO-deficient E. coli BT3(ΔPPO)
Procedure: as §1, §2, §3, §4, §7, §8

[5] = system: CyPPO16 (SEQ ID NO: 1) variant A162L in PPO-deficient E. coli BT3(ΔPPO)
Procedure: as §1, §2, §3, §4, §7, §8

[6] = system: CyPPO17 (SEQ ID NO: 3) variant F359M in PPO-deficient E. coli BT3(ΔPPO)
Procedure: as §1, §2, §3, §4, §7, §8

[7] = system: CyPPO17 (SEQ ID NO: 3) variant F359C in PPO-deficient E. coli BT3(ΔPPO)
Procedure: as §1, §2, §3, §4, §7, §8

[8] = system: CyPPO16 (SEQ ID NO: 1) variant F360L in PPO-deficient E. coli BT3(ΔPPO)
Procedure: as §1, §2, §3, §4, §7, §8

[9] = system: CyPPO16 (SEQ ID NO: 1) variant F360V in PPO-deficient E. coli BT3(ΔPPO)
Procedure: as §1, §2, §3, §4, §7, §8

[10] = system: CyPPO16 (SEQ ID NO: 1) variant V305M in PPO-deficient E. coli BT3(ΔPPO)
Procedure: as §1, §2, §3, §4, §7, §8

[11] = system: CyPPO16 (SEQ ID NO: 1) variant F360I in PPO-deficient E. coli BT3(ΔPPO)
Procedure: as §1, §2, §3, §4, §7, §8

[12] = system: CyPPO16 (SEQ ID NO: 1) variant F360C in PPO-deficient E. coli BT3(ΔPPO)
Procedure: as §1, §2, §3, §4, §7, §8

[13] = system: CyPPO16 (SEQ ID NO: 1) variant A162C in PPO-deficient E. coli BT3(ΔPPO)
Procedure: as §1, §2, §3, §4, §7, §8

[14] = system: CyPPO17 (SEQ ID NO: 3) variant V304M in PPO-deficient E. coli BT3(ΔPPO)
Procedure: as §1, §2, §3, §4, §7, §8

[15] = system: CyPPO17 (SEQ ID NO: 3) variant A166C in PPO-deficient E. coli BT3(ΔPPO)
Procedure: as §1, §2, §3, §4, §7, §8

[16] = system: CyPPO17 (SEQ ID NO: 3) variant A166L in PPO-deficient E. coli BT3(ΔPPO)
Procedure: as §1, §2, §3, §4, §7, §8

[17] = system: CyPPO16 (SEQ ID NO: 1) variant F360M in PPO-deficient E. coli BT3(ΔPPO)
Procedure: as §1, §2, §3, §4, §7, §8

Structure (SMILES)	Herbicide tolerance (relative to wild type) [1]	Herbicide tolerance (relative to wild type) [2]	Herbicide tolerance (relative to wild type) [3]	Herbicide tolerance (relative to wild type) [4]	Herbicide tolerance (relative to wild type) [5]	Herbicide tolerance (relative to wild type) [6]	Herbicide tolerance (relative to wild type) [7]	Herbicide tolerance (relative to wild type) [8]	Herbicide tolerance (relative to wild type) [9]	Herbicide tolerance (relative to wild type) [10]	Herbicide tolerance (relative to wild type) [11]	Herbicide tolerance (relative to wild type) [12]	Herbicide tolerance (relative to wild type) [13]	Herbicide tolerance (relative to wild type) [14]	Herbicide tolerance (relative to wild type) [15]	Herbicide tolerance (relative to wild type) [16]	Herbicide tolerance (relative to wild type) [17]
O=C(O)c1cc(Oc2ccc(C(F)(F)F)cc2Cl)ccc1[N+](=O)[O-] [acifluorfen]	−	−	+ (1-9 fold higher tolerance)	+ (1-9 fold higher tolerance)	++ (10-99 fold higher tolerance)	+++ (100-999 fold higher tolerance)	+ (1-9 fold higher tolerance)	+ (1-9 fold higher tolerance)	+ (1-9 fold higher tolerance)	++ (10-99 fold higher tolerance)	+ (1-9 fold higher tolerance)	++ (10-99 fold higher tolerance)	++ (10-99 fold higher tolerance)	+++ (100-999 fold higher tolerance)	+++ (100-999 fold higher tolerance)	+++ (100-999 fold higher tolerance)	+ (1-9 fold higher tolerance)
CS(=O)(=O)NC(=O)c1cc(Oc2ccc(C(F)(F)F)cc2Cl)ccc1[N+](=O)[O-] [fomesafen]	−	−	+ (1-9 fold higher tolerance)	+ (1-9 fold higher tolerance)	++ (10-99 fold higher tolerance)	++ (10-99 fold higher tolerance)	+ (1-9 fold higher tolerance)	+++ (100-999 fold higher tolerance)	+ (1-9 fold higher tolerance)	++ (10-99 fold higher tolerance)	+ (1-9 fold higher tolerance)	++ (10-99 fold higher tolerance)	++ (10-99 fold higher tolerance)	++ (10-99 fold higher tolerance)	+ (1-9 fold higher tolerance)	++ (10-99 fold higher tolerance)	+++ (100-999 fold higher tolerance)
CC(C)=C1OC(=O)N(c2cc(OC3CCCC3)c(Cl)cc2F)C1=O [pentoxazone]	−	−	+ (1-9 fold higher tolerance)	++ (10-99 fold higher tolerance)	++ (10-99 fold higher tolerance)	++ (10-99 fold higher tolerance)	+ (1-9 fold higher tolerance)	+ (1-9 fold higher tolerance)	+ (1-9 fold higher tolerance)	+ (1-9 fold higher tolerance)	+ (1-9 fold higher tolerance)	++ (10-99 fold higher tolerance)	++ (10-99 fold higher tolerance)	+ (1-9 fold higher tolerance)	+ (1-9 fold higher tolerance)	++ (10-99 fold higher tolerance)	+ (1-9 fold higher tolerance)
CCOC(=O)COc1cc(-c2nn(C)c(OC(F)F)c2Cl)c(F)cc1Cl [pyraflufen-ethyl]	−	−	++ (10-99 fold higher tolerance)	++ (10-99 fold higher tolerance)	+++ (100-999 fold higher tolerance)	++ (10-99 fold higher tolerance)	+ (1-9 fold higher tolerance)	++ (10-99 fold higher tolerance)	++ (10-99 fold higher tolerance)	+++ (100-999 fold higher tolerance)	++ (10-99 fold higher tolerance)	+++ (100-999 fold higher tolerance)	+++ (100-999 fold higher tolerance)	+ (1-9 fold higher tolerance)	++ (10-99 fold higher tolerance)	++ (10-99 fold higher tolerance)	++ (10-99 fold higher tolerance)
